The values that follow come from article PMC6020762, “An Integrative Volatile Terpenoid Profiling and Transcriptomics Analysis for Gene Mining and Functional Characterization of AvBPPS and AvPS Involved in the Monoterpenoid Biosynthesis in Amomum villosum” (Frontiers in Plant Science, 2018).

For data set [1], the target named is T1, AvBPPS (AvTPS3) (Wurfbainia villosa, UniProt A0A2Z4K4Q8).
T1 construct: gene TPS3; predicted 25-residue N-terminal transit peptide removed (full ORF 596 aa); E. coli Rosetta (DE3); Ni column
T1 sequence (A0A2Z4K4Q8 26-596): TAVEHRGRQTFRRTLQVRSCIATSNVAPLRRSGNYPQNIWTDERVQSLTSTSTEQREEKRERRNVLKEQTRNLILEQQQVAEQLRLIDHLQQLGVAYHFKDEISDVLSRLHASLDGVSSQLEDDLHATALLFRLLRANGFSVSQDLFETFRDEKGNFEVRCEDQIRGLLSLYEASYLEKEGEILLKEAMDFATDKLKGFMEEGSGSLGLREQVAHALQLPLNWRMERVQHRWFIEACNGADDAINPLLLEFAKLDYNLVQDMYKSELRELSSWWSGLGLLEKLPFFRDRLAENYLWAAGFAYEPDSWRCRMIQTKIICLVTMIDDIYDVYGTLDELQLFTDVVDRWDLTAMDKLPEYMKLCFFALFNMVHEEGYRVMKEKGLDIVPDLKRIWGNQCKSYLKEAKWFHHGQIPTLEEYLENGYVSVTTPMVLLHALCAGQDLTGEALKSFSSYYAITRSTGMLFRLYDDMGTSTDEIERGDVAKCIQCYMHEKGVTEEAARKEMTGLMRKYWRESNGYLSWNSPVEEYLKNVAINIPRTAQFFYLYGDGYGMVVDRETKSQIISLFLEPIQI
Briefly: GC-MS product analysis. The format is biochemical. Conditions: 25 mM HEPES pH 7.0, 5 mM MgCl2, 5 mM DTT, 30 °C, 2 h.

Data set [2] deals with T1, AvBPPS (AvTPS3). Briefly: GC-MS of borneol after alkaline phosphatase dephosphorylation. Format: biochemical. Conditions: from GPP; 25 mM HEPES pH 7.0, 5 mM MgCl2, 5 mM DTT, 30 °C, 1 h, then alkaline phosphatase 37 °C.
Substrate in data set [3]: CC(C)=CCC/C(C)=C/COP(=O)(O)OP(=O)(O)O
Nature of the data set: GC-MS product assay, kinetic analysis. Format: biochemical, Wurfbainia villosa. The following applies: Mg2+ present.

`CC(C)=CCC/C(C)=C/COP(=O)(O)OP(=O)(O)O` [GPP]: the GC-MS product analysis entry in data set [1] is on record as “AvTPS3 was found to catalyze GPP to produce three monoterpene compounds”.

Regarding `CC1(C)C2CCC1(C)C(OP(=O)(O)OP(=O)(O)O)C2` (stereo not drawn) [bornyl diphosphate], the “GC-MS of borneol after alkaline phosphatase dephosphorylation” value in data set [2] is reported as “we identified AvTPS3 as bornyl diphosphate synthase (AvBPPS) according to its most abundant product”.

B1: AvPS (AvTPS1) (Wurfbainia villosa) (protein)
chain: AAEESQSLSSTTSRRSGNYQPSIWTHDRIQSLTLSHAAADEEDHAEEIKLLKYQTSKLMEEKKGRVEEQLQLIDHLQQLGVAYHFKDEIKDTLRGFHASFEDVSLQLRDNLHASALLFRLLRENGFSVSEDIFKKFKDEKAGQFEDRLQSQAEGLLSLYEASYLEKDGEELLHEAREFTTKHLKNLLEEEGSLKPGLIREQVAHALELPLNWRFQRLHTKWFIGAWQRDPAMDPALLGLAKLDFNALQNIYKRELKEASRWWTDLGLPQKLPFFRDRLTENYLWTVGWAFEPDSWAFRELQTKINCFITLIDDVYDVYGTLDELELFTDIMERWDVNSIDKLPEYMKICFLAVFNTVNDAGYEVIRDKGVDIIPYLKRAWAELCKMYMREARWYHAGYTPTLDEYLDGAWISISGALILSTAYCMGNDLTKDDLDKFSTYPAVMHPSCMLLRLHDDFGTSTDELARGDVQKAVQCCMHERKVPEAVAREHIMQVMEAKWRLLNGNRVATSSFEEYFLNVAINIPRSAQFFYGQGDGYGKSDGETKKQVISLLIEPVQF
notes: predicted 42-residue N-terminal transit peptide removed (full ORF 600 aa); E. coli Rosetta (DE3); Ni column
Broadly, the Km is the concentration of substrate that gives half-maximal velocity. As for B1, the Km in data set [3] came out at 1.99 µM.
